Test results: PubChem BioAssay (NCI)
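At the GI50, growth is halved. TGI: total growth inhibition.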

How the values were obtained:
Assay in all cases: NCI tumour cell line growth inhibition, 384-well format
786-0 renal = system: 786-0 renal
A498 renal = system: A498 renal
A549 NSCLC = system: A549 NSCLC
ACHN renal = system: ACHN renal
BT-549 breast = system: BT-549 breast
CAKI-1 renal = system: CAKI-1 renal
CCRF-CEM leukemia = system: CCRF-CEM leukemia
COLO 205 colon = system: COLO 205 colon
DU-145 prostate = system: DU-145 prostate
EKVX NSCLC = system: EKVX NSCLC
HCC-2998 colon = system: HCC-2998 colon
HCT-15 colon = system: HCT-15 colon
HL-60(TB) leukemia = system: HL-60(TB) leukemia
HOP-62 NSCLC = system: HOP-62 NSCLC
HOP-92 NSCLC = system: HOP-92 NSCLC
HS 578T breast = system: HS 578T breast
HT29 colon = system: HT29 colon
IGROV1 ovarian = system: IGROV1 ovarian
K-562 leukemia = system: K-562 leukemia
KM12 colon = system: KM12 colon
LOX IMVI melanoma = system: LOX IMVI melanoma
M14 melanoma = system: M14 melanoma
MALME-3M melanoma = system: MALME-3M melanoma
MCF7 breast = system: MCF7 breast
MDA-MB-231 breast = system: MDA-MB-231 breast
MDA-MB-435 melanoma = system: MDA-MB-435 melanoma
MDA-MB-468 breast = system: MDA-MB-468 breast
MOLT-4 leukemia = system: MOLT-4 leukemia
NCI-H226 lung = system: NCI-H226 lung
NCI-H23 lung = system: NCI-H23 lung
NCI-H322M lung = system: NCI-H322M lung
NCI-H460 NSCLC = system: NCI-H460 NSCLC
NCI-H522 lung = system: NCI-H522 lung
NCI/ADR-RES ovarian = system: NCI/ADR-RES ovarian
OVCAR-3 ovarian = system: OVCAR-3 ovarian
OVCAR-4 ovarian = system: OVCAR-4 ovarian
OVCAR-5 ovarian = system: OVCAR-5 ovarian
OVCAR-8 ovarian = system: OVCAR-8 ovarian
PC-3 prostate = system: PC-3 prostate
RPMI-8226 leukemia = system: RPMI-8226 leukemia
RXF 393 renal = system: RXF 393 renal
SF-268 CNS = system: SF-268 CNS
SF-295 CNS = system: SF-295 CNS
SF-539 CNS = system: SF-539 CNS
SK-MEL-2 melanoma = system: SK-MEL-2 melanoma
SK-MEL-28 melanoma = system: SK-MEL-28 melanoma
SK-MEL-5 melanoma = system: SK-MEL-5 melanoma
SK-OV-3 ovarian = system: SK-OV-3 ovarian
SN12C renal = system: SN12C renal
SNB-19 CNS = system: SNB-19 CNS
SNB-75 CNS = system: SNB-75 CNS
SR leukemia = system: SR leukemia
SW-620 colon = system: SW-620 colon
T-47D breast = system: T-47D breast
TK-10 renal = system: TK-10 renal
U251 glioblastoma = system: U251 glioblastoma
UACC-257 melanoma = system: UACC-257 melanoma
UACC-62 melanoma = system: UACC-62 melanoma
UO-31 renal = system: UO-31 renal

CC1(C)CC[C@H](Nc2ncc(C(F)(F)F)c(-c3c[nH]c4c(P(C)(C)=O)c(C#N)ccc34)n2)CN1
GI50 ([…]-0 renal): < 0.01 µM
TGI (786-0 renal): 6.18 µM
GI50 (A498 renal): 0.0197 µM
TGI (A498 renal): 6.54 µM
GI50 (A549 NSCLC): 0.0663 µM
TGI (A549 NSCLC): 12 µM
GI50 (ACHN renal): 0.0736 µM
TGI (ACHN renal): 8.68 µM
GI50 (BT-549 breast): 0.0113 µM
TGI (BT-549 breast): 0.205 µM
GI50 (CAKI-1 renal): 0.0388 µM
TGI (CAKI-1 renal): 12.3 µM
GI50 (CCRF-CEM leukemia): 0.0546 µM
TGI (CCRF-CEM leukemia): 1.36 µM
GI50 (COLO 205 colon): < 0.01 µM
TGI (COLO 205 colon): 1.45 µM
GI50 (DU-145 prostate): < 0.01 µM
TGI (DU-145 prostate): 3.79 µM
GI50 (EKVX NSCLC): 0.361 µM
TGI (EKVX NSCLC): 3.64 µM
GI50 (HCC-2998 colon): < 0.01 µM
TGI (HCC-2998 colon): 4.21 µM
GI50 (HCT-15 colon): 0.0659 µM
TGI (HCT-15 colon): 4.37 µM
GI50 (HL-60(TB) leukemia): < 0.01 µM
TGI (HL-60(TB) leukemia): 0.126 µM
GI50 (HOP-62 NSCLC): < 0.01 µM
TGI (HOP-62 NSCLC): 0.0182 µM
GI50 (HOP-92 NSCLC): 2.31 µM
TGI (HOP-92 NSCLC): 11.6 µM
GI50 (HS 578T breast): 0.301 µM
TGI (HS 578T breast): 1.62 µM
GI50 (HT29 colon): 2.06 µM
TGI (HT29 colon): 28.3 µM
GI50 (IGROV1 ovarian): < 0.01 µM
TGI (IGROV1 ovarian): 13.8 µM
GI50 (K-562 leukemia): < 0.01 µM
TGI (K-562 leukemia): 11.2 µM
GI50 (KM12 colon): < 0.01 µM
TGI (KM12 colon): 1.68 µM
GI50 (LOX IMVI melanoma): < 0.01 µM
TGI (LOX IMVI melanoma): 0.213 µM
GI50 (M14 melanoma): 0.0168 µM
TGI (M14 melanoma): 2.21 µM
GI50 (MALME-3M melanoma): 0.0276 µM
TGI (MALME-3M melanoma): 2.42 µM
GI50 (MCF7 breast): < 0.01 µM
TGI (MCF7 breast): 1.45 µM
GI50 (MDA-MB-231 breast): 1.19 µM
TGI (MDA-MB-231 breast): 10.3 µM
GI50 (MDA-MB-435 melanoma): 0.114 µM
TGI (MDA-MB-435 melanoma): 2.72 µM
GI50 (MDA-MB-468 breast): 1.36 µM
TGI (MDA-MB-468 breast): 3.01 µM
GI50 (MOLT-4 leukemia): < 0.01 µM
TGI (MOLT-4 leukemia): < 0.01 µM
GI50 (NCI-H226 lung): 0.577 µM
TGI (NCI-H226 lung): 12.6 µM
GI50 (NCI-H23 lung): < 0.01 µM
TGI (NCI-H23 lung): 1.47 µM
GI50 (NCI-H322M lung): 0.644 µM
TGI (NCI-H322M lung): 3.14 µM
GI50 (NCI-H460 NSCLC): < 0.01 µM
TGI (NCI-H460 NSCLC): < 0.01 µM
GI50 (NCI-H522 lung): < 0.01 µM
TGI (NCI-H522 lung): 2.42 µM
GI50 (NCI/ADR-RES ovarian): 2.5 µM
TGI (NCI/ADR-RES ovarian): 12.6 µM
GI50 (OVCAR-3 ovarian): < 0.01 µM
TGI (OVCAR-3 ovarian): < 0.01 µM
GI50 (OVCAR-4 ovarian): 0.0213 µM
TGI (OVCAR-4 ovarian): 1.42 µM
GI50 (OVCAR-5 ovarian): 0.182 µM
TGI (OVCAR-5 ovarian): 9.82 µM
GI50 (OVCAR-8 ovarian): 0.0743 µM
TGI (OVCAR-8 ovarian): 6.28 µM
GI50 (PC-3 prostate): < 0.01 µM
TGI (PC-3 prostate): 10.8 µM
GI50 (RPMI-8226 leukemia): < 0.01 µM
TGI (RPMI-8226 leukemia): < 0.01 µM
GI50 (RXF 393 renal): 1.51 µM
TGI (RXF 393 renal): 2.99 µM
GI50 (SF-268 CNS): 0.132 µM
TGI (SF-268 CNS): 1.99 µM
GI50 (SF-295 CNS): 0.0675 µM
TGI (SF-295 CNS): 4.57 µM
GI50 (SF-539 CNS): < 0.01 µM
TGI (SF-539 CNS): 1.3 µM
GI50 (SK-MEL-2 melanoma): 1.22 µM
TGI (SK-MEL-2 melanoma): 3.17 µM
GI50 (SK-MEL-28 melanoma): < 0.01 µM
TGI (SK-MEL-28 melanoma): 1.52 µM
GI50 (SK-MEL-5 melanoma): 0.0438 µM
TGI (SK-MEL-5 melanoma): 1.42 µM
GI50 (SK-OV-3 ovarian): 1.13 µM
TGI (SK-OV-3 ovarian): 6.25 µM
GI50 (SN12C renal): < 0.01 µM
TGI (SN12C renal): 2.87 µM
GI50 (SNB-19 CNS): 1 µM
TGI (SNB-19 CNS): 12.8 µM
GI50 (SNB-75 CNS): 1.57 µM
TGI (SNB-75 CNS): 3.2 µM
GI50 (SR leukemia): < 0.01 µM
TGI (SR leukemia): < 0.01 µM
GI50 (SW-620 colon): < 0.01 µM
TGI (SW-620 colon): 10.2 µM
GI50 (T-47D breast): 0.994 µM
TGI (T-47D breast): 10.2 µM
GI50 (TK-10 renal): 0.887 µM
TGI (TK-10 renal): 10.4 µM
GI50 (U251 glioblastoma): 0.0133 µM
TGI (U251 glioblastoma): 10.4 µM
GI50 (UACC-257 melanoma): 1.02 µM
TGI (UACC-257 melanoma): 3.45 µM
GI50 (UACC-62 melanoma): < 0.01 µM
TGI (UACC-62 melanoma): 0.0309 µM
GI50 (UO-31 renal): 0.335 µM
TGI (UO-31 renal): 8.12 µM
